For orientation: IC50 means the concentration that gives 50% inhibition. A lower IC50 goes with inhibition by little substance.

SMILES strings stand for the structures.

This test addresses purified human farnesyl protein transferase (Homo sapiens, UniProt P49354+P49356). The test can be described thus: (H-Ras) Farnesyl Transferase Inhibition assay. The format is biochemical. As to conditions: transfer of [3H] farnesyl from [3H] farnesyl pyrophosphate to biotin-CVLS peptide; 37° C., 60 minutes; SPA beads. How it is done: Assay Conditions for (H-Ras) FPT
FPT activity was determined by measuring the transfer of [^3H] farnesyl from [^3H] farnesyl pyrophosphate to a biotinylated peptide derived from the C-terminus of H-Ras (biotin-CVLS). […] The reaction mixture was incubated in a Vortemp shaking incubator at 37° C., 45 RPM for 60 minutes and stopped with 150 μL of 0.25 M EDTA containing 0.5% BSA and 1.3 mg/ml Streptavidin SPA beads. […] Percent inhibition was calculated relative to the vehicle control.

Consider `NC(=O)N1CC=C(CC(=O)N2CCC([C@H]3c4ncc(Br)cc4CCc4cc(Cl)cc(Br)c43)CC2)CC1` [Compound 8, (+)-4-[2-[4-(3,10-dibromo-8-chloro-6,11-dihydro-5H-benzo[5,6]cyclohepta[1,2-b]pyridin-11(R)-yl)-1-piperidinyl]-2-oxoethyl]-3,4-didehydro-1-piperidine-carboxamide], for which the IC50 stood at 0.0026 µM.

In the case of `NC(=O)N1CCC(=CC(=O)N2CCC([C@H]3c4ncc(Br)cc4CCc4cc(Cl)cc(Br)c43)CC2)CC1` [Compound 9, (+)-4-[2-[4-(3,10-Dibromo-8-chloro-6,11-dihydro-5H-benzo[5,6]cyclohepta[1,2-b]pyridin-11(R)-yl)-1-piperidinyl]-2-oxoethylidene]-1-piperidinecarboxamide], half-maximal inhibition (IC50) was put at 0.0233 µM.

These data come from patent publication US7271174B2, “Metabolites of tricyclic amides useful for inhibition of G-protein function and methods of treatment of proliferative diseases” (Schering Corporation, priority 2003, dated 2007).
